The supplement of paper PMC10627819

Assays:
[1] = tested on: S. aureus DSM 20231; assay: Bliss interaction score (quartile over a dose matrix) (fitness difference); higher = more antagonism (negative = synergy)
Method in brief: (§1)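 The Bliss score takes observed fitness and subtracts the expected fitness, calculated as a product of single-drug fitness values. Those single-drug values were inferred from the combination data. Fitness is OD595 at entry into stationary phase divided by the plate's robust no-drug mean, capped at 1, and the score is summarised by quartiles across technical, biological and donor/recipient replicates.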

[2] = tested on: S. aureus Newman; assay: as above
Method in brief: as §1

[3] = tested on: S. pneumoniae D39V; assay: as above
Method in brief: as §1

[4] = tested on: B. subtilis 168; assay: as above
Method in brief: as §1

[5] = tested on: S. aureus DSM 20231; assay: fitness (endpoint OD595 vs no drug) (fraction); higher = more growth
Method in brief: (§2)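 At 37 °C, bacteria in TSB, LB Lennox or CY were grown in 384-well plates from a starting OD595 of 0.01. OD595 was measured every 30 min for 14 h, with the first reading used as background. Fitness is the optical density at the switch to stationary phase as a fraction of the robust mean of no-drug control wells, capped at 1.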

[6] = tested on: S. aureus Newman; assay: as above
Method in brief: as §2

[7] = tested on: S. pneumoniae D39V; assay: as above
Method in brief: as §2
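For Bliss interaction score (quartile over a dose matrix) in this document: first quartile when negative (synergy) and third quartile when positive (antagonism).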
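For fitness (endpoint OD595 vs no drug) in this document: OD595 on entry to stationary phase over no-drug wells; at most 1.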

CC1(C)S[C@@H]2[C@H](NC(=O)[C@H](N)c3ccc(O)cc3)C(=O)N2[C@H]1C(=O)O [Amoxicillin] + CC1=C\[C@@H](O)CC(=O)Cc2nc(co2)C(=O)N2CCC=C2C(=O)O[C@H](C(C)C)[C@H](C)/C=C/C(=O)NC\C=C\1 [Virginiamycin M1]
Details | Bliss interaction score
[1] | -0.0553
[2] | 0.0682
[3] | -0.0459
[4] | -0.0567

Details | fitness
[5], first compound 0.0625 µg/mL, partner 0.0625 µg/mL | 0.48
[5], first compound 0.0625 µg/mL, partner 0.125 µg/mL | 0.488
[5], first compound 0.0625 µg/mL, partner 0.25 µg/mL | 0.504
[5], first compound 0.125 µg/mL, partner 0.0625 µg/mL | 0.329
[5], first compound 0.25 µg/mL, partner 0.125 µg/mL | 0.0421
[5], first compound 0.25 µg/mL, partner 0.25 µg/mL | 0.0398
[6], first compound 0.0625 µg/mL, partner 0.0625 µg/mL | 0.935
[6], first compound 0.0625 µg/mL, partner 0.125 µg/mL | 0.893
[6], first compound 0.0625 µg/mL, partner 0.25 µg/mL | 0.906
[6], first compound 0.125 µg/mL, partner 0.0625 µg/mL | 0.883
[6], first compound 0.125 µg/mL, partner 0.125 µg/mL | 0.948
[6], first compound 0.125 µg/mL, partner 0.25 µg/mL | 0.945
[6], first compound 0.25 µg/mL, partner 0.0625 µg/mL | 0.867
[6], first compound 0.25 µg/mL, partner 0.125 µg/mL | 0.921
[6], first compound 0.25 µg/mL, partner 0.25 µg/mL | 0.886
[7], first compound 0.0008 µg/mL, partner 0.5 µg/mL | 0.988
[7], first compound 0.0008 µg/mL, partner 1 µg/mL | ≥ 1
[7], first compound 0.0008 µg/mL, partner 2 µg/mL | 0.937
[7], first compound 0.0015 µg/mL, partner 0.5 µg/mL | 0.978
[7], first compound 0.0015 µg/mL, partner 1 µg/mL | 0.965
[7], first compound 0.0015 µg/mL, partner 2 µg/mL | 0.95
[7], first compound 0.003 µg/mL, partner 0.5 µg/mL | 0.926
[7], first compound 0.003 µg/mL, partner 1 µg/mL | 0.956
[7], first compound 0.003 µg/mL, partner 2 µg/mL | 0.914

one replicate
Details | fitness
[5], first compound 0.0625 µg/mL, partner 0.5 µg/mL | 0.541
[5], first compound 0.0625 µg/mL, partner 1 µg/mL | 0.699
[5], first compound 0.125 µg/mL, partner 0.5 µg/mL | 0.444
[5], first compound 0.125 µg/mL, partner 1 µg/mL | 0.497
[5], first compound 0.25 µg/mL, partner 0.5 µg/mL | 0.0437
[5], first compound 0.25 µg/mL, partner 1 µg/mL | 0.108
[5], first compound 0.5 µg/mL, partner 0.0625 µg/mL | 0.0149
[5], first compound 0.5 µg/mL, partner 0.125 µg/mL | 0.0318
[5], first compound 0.5 µg/mL, partner 0.25 µg/mL | 0.0127
[6], first compound 0.125 µg/mL, partner 0.5 µg/mL | 0.81
[6], first compound 0.125 µg/mL, partner 1 µg/mL | ≥ 1
[6], first compound 0.125 µg/mL, partner 2 µg/mL | 0.845
[6], first compound 0.25 µg/mL, partner 0.5 µg/mL | 0.813
[6], first compound 0.25 µg/mL, partner 1 µg/mL | 0.865
[6], first compound 0.25 µg/mL, partner 2 µg/mL | 0.754
[6], first compound 0.5 µg/mL, partner 0.5 µg/mL | 0.74
[6], first compound 0.5 µg/mL, partner 1 µg/mL | 0.828
[6], first compound 0.5 µg/mL, partner 2 µg/mL | 0.732
[7], first compound 0.0008 µg/mL, partner 0.15 µg/mL | 0.996
[7], first compound 0.0008 µg/mL, partner 0.3 µg/mL | 0.892
[7], first compound 0.0015 µg/mL, partner 0.15 µg/mL | 0.948
[7], first compound 0.0015 µg/mL, partner 0.3 µg/mL | 0.9
[7], first compound 0.003 µg/mL, partner 0.15 µg/mL | 0.951
[7], first compound 0.003 µg/mL, partner 0.3 µg/mL | 0.906
[7], first compound 0.006 µg/mL, partner 0.5 µg/mL | 0.447
[7], first compound 0.006 µg/mL, partner 1 µg/mL | 0.474
[7], first compound 0.006 µg/mL, partner 2 µg/mL | 0.46

CC1(C)S[C@@H]2[C@H](NC(=O)[C@H](N)c3ccc(O)cc3)C(=O)N2[C@H]1C(=O)O [Amoxicillin] + CCC[C@@H]1C[C@@H](C(=O)N[C@@H]([C@H]2O[C@H](SC)[C@H](O)[C@@H](O)[C@H]2O)[C@H](C)Cl)N(C)C1 [Clindamycin]
Details | Bliss interaction score
[1] | 0.0324
[2] | -0.0717
[3] | 0.151
[4] | -0.0391

Details | fitness
[5], first compound 0.0625 µg/mL, partner 0.0625 µg/mL | 0.132
[5], first compound 0.0625 µg/mL, partner 0.125 µg/mL | 0.0693
[5], first compound 0.125 µg/mL, partner 0.0312 µg/mL | 0.157
[5], first compound 0.125 µg/mL, partner 0.0625 µg/mL | 0.0589
[5], first compound 0.125 µg/mL, partner 0.125 µg/mL | 0.0684
[5], first compound 0.25 µg/mL, partner 0.0312 µg/mL | 0.0508
[5], first compound 0.25 µg/mL, partner 0.0625 µg/mL | 0.038
[5], first compound 0.25 µg/mL, partner 0.125 µg/mL | 0.0621
[5], first compound 0.5 µg/mL, partner 0.0312 µg/mL | 0.0205
[5], first compound 0.5 µg/mL, partner 0.0625 µg/mL | 0.0091
[5], first compound 0.5 µg/mL, partner 0.125 µg/mL | 0.0231
[6], first compound 0.0625 µg/mL, partner 0.0312 µg/mL | 0.698
[6], first compound 0.125 µg/mL, partner 0.125 µg/mL | 0.0978
[7], first compound 0.0008 µg/mL, partner 0.0125 µg/mL | 0.796
[7], first compound 0.0008 µg/mL, partner 0.025 µg/mL | 0.519
[7], first compound 0.0008 µg/mL, partner 0.05 µg/mL | 0.203
[7], first compound 0.0015 µg/mL, partner 0.0125 µg/mL | 0.77
[7], first compound 0.0015 µg/mL, partner 0.015 µg/mL | 0.92
[7], first compound 0.0015 µg/mL, partner 0.025 µg/mL | 0.488
[7], first compound 0.0015 µg/mL, partner 0.03 µg/mL | 0.757
[7], first compound 0.0015 µg/mL, partner 0.05 µg/mL | 0.186
[7], first compound 0.0015 µg/mL, partner 0.06 µg/mL | 0.539
[7], first compound 0.003 µg/mL, partner 0.0125 µg/mL | 0.77
[7], first compound 0.003 µg/mL, partner 0.015 µg/mL | 0.872
[7], first compound 0.003 µg/mL, partner 0.025 µg/mL | 0.482
[7], first compound 0.003 µg/mL, partner 0.03 µg/mL | 0.726
[7], first compound 0.003 µg/mL, partner 0.05 µg/mL | 0.186
[7], first compound 0.003 µg/mL, partner 0.06 µg/mL | 0.509

fitness, [7], one replicate
Details | partner 0.015 µg/mL | partner 0.03 µg/mL | partner 0.06 µg/mL
first compound 0.0008 µg/mL | 0.962 | 0.84 | 0.557
first compound 0.006 µg/mL | 0.505 | 0.385 | 0.298

CC1(C)S[C@@H]2[C@H](NC(=O)[C@H](N)c3ccc(O)cc3)C(=O)N2[C@H]1C(=O)O [Amoxicillin] + CCN(CC)CCOC(=O)c1ccc(N)cc1 [Procaine]
Details | Bliss interaction score
[1] | -0.0798
[2] | -0.0462
[3] | 0.0262
[4] | -0.036

fitness
Details | partner 85.5 µg/mL | partner 171 µg/mL | partner 342 µg/mL
[5], first compound 0.0625 µg/mL | 0.455 | 0.523 | 0.523
[5], first compound 0.125 µg/mL | 0.423 | 0.478 | 0.495
[5], first compound 0.25 µg/mL | 0.0255 | – | –
[6], first compound 0.0625 µg/mL | 0.862 | 0.875 | 0.861
[6], first compound 0.125 µg/mL | – | 0.847 | 0.861
[6], first compound 0.25 µg/mL | – | 0.841 | 0.811
[7], first compound 0.0008 µg/mL | 1 | 0.989 | 0.942
[7], first compound 0.0015 µg/mL | 0.985 | 0.971 | 0.987
[7], first compound 0.003 µg/mL | 0.918 | 0.93 | 0.992

fitness, one replicate
Details | partner 85.5 µg/mL | partner 171 µg/mL | partner 342 µg/mL
[5], first compound 0.5 µg/mL | 0.0288 | 0.0239 | 0.0199
[7], first compound 0.006 µg/mL | 0.536 | 0.524 | 0.519
